Data on seven molecules can be found in ChEMBL document CHEMBL1938252, “Structure-based optimization of morpholino-triazines as PI3K and mTOR inhibitors” (Bioorg Med Chem Lett, 2012).

For one experiment, the target named is T1, Serine/threonine-protein kinase mTOR (Homo sapiens, UniProt P42345). Briefly: Inhibition of mTOR.
On to `Cc1nccn1-c1nc(-c2cnc(N)nc2)nc(N2CCOCC2)n1`, for which half-maximal inhibition (IC50) required 420 nM.

`CCc1nccn1-c1nc(-c2cccc3[nH]ccc23)nc(N2CCOCC2)n1` yielded a half-maximal inhibitory concentration (IC50) of 26 nM.

Molecule `Cc1ccc(-c2nc(N3CCOCC3)nc(-n3ccnc3C)n2)c2cc[nH]c12` registered an IC50 of 18 nM.

Take `FC(F)c1nc2ccccc2n1-c1nc(N2CCOCC2)nc(N2CCOCC2)n1` [ZSTK-474]: half-maximal inhibition (IC50) was put at 350 nM.

`CCc1cc(C(F)(F)F)nn1-c1nc(-c2cccc3[nH]ccc23)nc(N2CCOCC2)n1` returned a half-inhibitory concentration (IC50) of 71 nM.

Regarding `Cc1nccn1-c1nc(-c2cccc(O)c2)nc(N2CCOCC2)n1`, the IC50 amounted to 95 nM.

As for `Clc1cccc(Nc2nc(N3CCOCC3)nc(-n3cccn3)n2)c1`, half-maximal inhibition (IC50) required 570 nM.

The target of another experiment is Phosphatidylinositol 4,5-bisphosphate 3-kinase catalytic subunit alpha isoform (Homo sapiens, UniProt P42336). Briefly: Inhibition of PI3Kalpha.
Chain of Phosphatidylinositol 4,5-bisphosphate 3-kinase catalytic subunit alpha isoform (P42336 whole entry, canonical isoform): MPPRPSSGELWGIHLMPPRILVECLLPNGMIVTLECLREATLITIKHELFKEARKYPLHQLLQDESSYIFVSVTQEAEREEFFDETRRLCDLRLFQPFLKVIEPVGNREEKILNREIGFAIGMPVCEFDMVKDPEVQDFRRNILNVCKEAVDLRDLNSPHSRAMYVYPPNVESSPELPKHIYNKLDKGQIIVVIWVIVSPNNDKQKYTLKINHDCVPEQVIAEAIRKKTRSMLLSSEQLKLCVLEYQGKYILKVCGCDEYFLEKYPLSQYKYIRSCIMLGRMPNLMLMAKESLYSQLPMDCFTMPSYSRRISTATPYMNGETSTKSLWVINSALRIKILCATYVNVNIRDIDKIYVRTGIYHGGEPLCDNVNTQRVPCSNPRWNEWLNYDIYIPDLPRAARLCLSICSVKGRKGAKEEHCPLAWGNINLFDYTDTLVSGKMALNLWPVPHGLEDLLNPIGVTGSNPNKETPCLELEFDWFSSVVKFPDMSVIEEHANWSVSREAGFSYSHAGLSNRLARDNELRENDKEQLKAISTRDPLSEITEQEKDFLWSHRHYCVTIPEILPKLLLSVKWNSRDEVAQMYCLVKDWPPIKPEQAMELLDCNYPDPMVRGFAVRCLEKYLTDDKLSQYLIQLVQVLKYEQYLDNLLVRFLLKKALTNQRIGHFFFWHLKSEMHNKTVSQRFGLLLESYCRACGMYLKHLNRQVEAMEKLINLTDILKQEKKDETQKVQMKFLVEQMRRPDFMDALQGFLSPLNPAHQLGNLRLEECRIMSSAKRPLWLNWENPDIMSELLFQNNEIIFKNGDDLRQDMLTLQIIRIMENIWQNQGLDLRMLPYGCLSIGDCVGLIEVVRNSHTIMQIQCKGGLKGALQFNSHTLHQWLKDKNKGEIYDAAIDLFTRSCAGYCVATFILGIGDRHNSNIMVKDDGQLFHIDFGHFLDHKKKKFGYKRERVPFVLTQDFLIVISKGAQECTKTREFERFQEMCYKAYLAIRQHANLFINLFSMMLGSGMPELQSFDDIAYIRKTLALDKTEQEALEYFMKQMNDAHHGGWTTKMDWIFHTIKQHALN
In the case of `Cc1nccn1-c1nc(-c2cnc(N)nc2)nc(N2CCOCC2)n1`, the IC50 came out at 25 nM.

`CCc1nccn1-c1nc(-c2cccc3[nH]ccc23)nc(N2CCOCC2)n1` yielded a half-inhibitory concentration (IC50) of 89 nM.

Take `Cc1ccc(-c2nc(N3CCOCC3)nc(-n3ccnc3C)n2)c2cc[nH]c12`: inhibition was half-maximal at 1100 nM (IC50).

Consider `CCc1cc(C(F)(F)F)nn1-c1nc(-c2cccc3[nH]ccc23)nc(N2CCOCC2)n1`, for which half-maximal inhibition (IC50) was put at 4050 nM.

`Cc1nccn1-c1nc(-c2cccc(O)c2)nc(N2CCOCC2)n1` showed an IC50 of 53 nM.

For the molecule `Clc1cccc(Nc2nc(N3CCOCC3)nc(-n3cccn3)n2)c1`, half-maximal inhibition (IC50) was put at 2800 nM.

Test system in the next experiment: not listed separately
Briefly: Selectivity ratio of IC50 for PI3Kaplha to IC50 for mTOR.
As for `Cc1nccn1-c1nc(-c2cnc(N)nc2)nc(N2CCOCC2)n1`, the Ratio IC50 amounted to 0.06.

As to `CCc1nccn1-c1nc(-c2cccc3[nH]ccc23)nc(N2CCOCC2)n1`, the Ratio IC50 was determined as 3.4.

In the case of `Cc1ccc(-c2nc(N3CCOCC3)nc(-n3ccnc3C)n2)c2cc[nH]c12`, the Ratio IC50 turned out to be 60.

As for `CCc1cc(C(F)(F)F)nn1-c1nc(-c2cccc3[nH]ccc23)nc(N2CCOCC2)n1`, the Ratio IC50 amounted to 57.

On to `Cc1nccn1-c1nc(-c2cccc(O)c2)nc(N2CCOCC2)n1`, for which the Ratio IC50 turned out to be 0.6.

Turning to `Clc1cccc(Nc2nc(N3CCOCC3)nc(-n3cccn3)n2)c1`, the Ratio IC50 is 4.9.

A further experiment addresses T1, Serine/threonine-protein kinase mTOR. Briefly: Inhibition of mTOR-mediated p70S6K phosphorylation at Thr389 in human PC3 cells. The format is cell-based, PC-3.
As for `CCc1nccn1-c1nc(-c2cccc3[nH]ccc23)nc(N2CCOCC2)n1`, the concentration for half-maximal inhibition (IC50) amounted to 96 nM.

The molecule `Cc1ccc(-c2nc(N3CCOCC3)nc(-n3ccnc3C)n2)c2cc[nH]c12` registered an IC50 of 84 nM.

`CCc1cc(C(F)(F)F)nn1-c1nc(-c2cccc3[nH]ccc23)nc(N2CCOCC2)n1`: the 50% inhibitory concentration (IC50) was 490 nM.
